Data taken from ChEMBL document CHEMBL4507326, “Data for DCP probe TP-030-2” (2021).

Key:
[1] = target: Sigma intracellular receptor 2 (Homo sapiens, UniProt Q5BJF2); assay: GPCRScan assay: inhibition of Sigma 2; parameters: radioligand conc. used [nm] 5.0, parental cells HEKT
[2] = target: ALK tyrosine kinase receptor (Homo sapiens, UniProt Q9UM73); assay: ALK(ALK1LGY1) Takeda global kinase panel
[3] = target: Cyclin-dependent kinase 1 (Homo sapiens, UniProt P06493); assay: CDC2 [CDK1(CDK1CGS1)] Takeda global kinase panel
[4] = target: Cyclin-dependent kinase 6 (Homo sapiens, UniProt Q00534); assay: CDK6(CDK6CGS1) Takeda global kinase panel
[5] = target: Serine/threonine-protein kinase Chk2 (Homo sapiens, UniProt O96017); assay: CHK2(CHE2LGY1) Takeda global kinase panel
[6] = target: Inhibitor of nuclear factor kappa-B kinase subunit alpha (Homo sapiens, UniProt O15111); assay: IKKalpha(CHUKLGP1) Takeda global kinase panel
[7] = target: Casein kinase II subunit alpha (Homo sapiens, UniProt P68400); assay: CK2alpha1(C2A1LGF1) Takeda global kinase panel
[8] = target: Death-associated protein kinase 2 (Homo sapiens, UniProt Q9UIK4); assay: DAPK2(DAP2LGF1) Takeda global kinase panel
[9] = target: Tyrosine-protein kinase Fer (Homo sapiens, UniProt P16591); assay: Fer(FER1LGY1) Takeda global kinase panel
[10] = target: Tyrosine-protein kinase Fes/Fps (Homo sapiens, UniProt P07332); assay: Fes(FES1LHY1) Takeda global kinase panel
[11] = target: G protein-coupled receptor kinase 5 (Homo sapiens, UniProt P34947); assay: GRK5(GRK5LGP1) Takeda global kinase panel
[12] = target: Interleukin-1 receptor-associated kinase 4 (Homo sapiens, UniProt Q9NWZ3); assay: IRAK4(IRK4LGF1) Takeda global kinase panel
[13] = target: Mitogen-activated protein kinase 1 (Homo sapiens, UniProt P28482); assay: ERK2(MAP1LGY1) Takeda global kinase panel
[14] = target: Mitogen-activated protein kinase 10 (Homo sapiens, UniProt P53779); assay: JNK3(MP10LGF2) Takeda global kinase panel
[15] = target: Mitogen-activated protein kinase 3 (Homo sapiens, UniProt P27361); assay: ERK1(MAP3LGY1) Takeda global kinase panel
[16] = target: Microtubule-associated serine/threonine-protein kinase 4 (Homo sapiens, UniProt O15021); assay: MAST4(MAS4LGRD) Takeda global kinase panel
[17] = target: Serine/threonine-protein kinase Nek1 (Homo sapiens, UniProt Q96PY6); assay: Nek1(NEK1LGY1) Takeda global kinase panel
[18] = target: Serine/threonine-protein kinase Nek8 (Homo sapiens, UniProt Q86SG6); assay: Nek8(NEK8LGRI) Takeda global kinase panel
[19] = target: NT-3 growth factor receptor (Homo sapiens, UniProt Q16288); assay: TRKC(NTR3LGN1) Takeda global kinase panel
[20] = target: NUAK family SNF1-like kinase 1 (Homo sapiens, UniProt O60285); assay: NuaK1(NUA1LGF5) Takeda global kinase panel
[21] = target: Protein kinase C epsilon type (Homo sapiens, UniProt Q02156); assay: PKCepsilon(PRKELHY1) Takeda global kinase panel
[22] = target: Protein kinase C theta type (Homo sapiens, UniProt Q04759); assay: PKCtheta(PRKQLGM5) Takeda global kinase panel
[23] = target: Ribosomal protein S6 kinase alpha-6 (Homo sapiens, UniProt Q9UK32); assay: RSK4(R6A6LGF1) Takeda global kinase panel
[24] = target: Serine/threonine-protein kinase SBK1 (Homo sapiens, UniProt Q52WX2); assay: SBK(SBK1LGY1) Takeda global kinase panel
SRSF protein kinase 2 = SRSF protein kinase 2 (Homo sapiens, UniProt P78362); assay: SRPK2(SRP2IGRL) Takeda global kinase panel
[25] = target: Serine/threonine-protein kinase 24 (Homo sapiens, UniProt Q9Y6E0); assay: MST3(ST24LGC1) Takeda global kinase panel
[26] = target: STE20-related kinase adapter protein alpha (Homo sapiens, UniProt Q7RTN6); assay: STLK5(STRAPHD1) Takeda global kinase panel
TGF-beta receptor type-1 = TGF-beta receptor type-1 (Homo sapiens, UniProt P36897); assay: TGFbetaR1(TGF1LGF1) Takeda global kinase panel
TGF-beta receptor type-2 = TGF-beta receptor type-2 (Homo sapiens, UniProt P37173); assay: TGFbetaR2(TGF2LGY1) Takeda global kinase panel
[27] = target: Non-receptor tyrosine-protein kinase TNK1 (Homo sapiens, UniProt Q13470); assay: Tnk1(TNK1LGY1) Takeda global kinase panel
[28] = target: 5-hydroxytryptamine receptor 3A (Homo sapiens) (UniProt P46098); conditions: Compound concentration 10.0 uM
[29] = target: D(3) dopamine receptor (Homo sapiens) (UniProt P35462); conditions: Compound concentration 10.0 uM
[30] = target: D(1B) dopamine receptor (Homo sapiens) (UniProt P21918); conditions: Compound concentration 10.0 uM
[31] = target: Sodium-dependent noradrenaline transporter (Homo sapiens) (UniProt P23975); conditions: Compound concentration 10.0 uM
[32] = target: Alpha-1A adrenergic receptor (Homo sapiens) (UniProt P35348); conditions: Compound concentration 10.0 uM
[33] = target: Adenosine receptor A3 (Homo sapiens) (UniProt P0DMS8); conditions: Compound concentration 10.0 uM
[34] = target: GABA-A receptor; anion channel (Rattus norvegicus) (UniProt O09028+P15431+P18506+P18508+P19969+P20236+P23574+P23576+P28471+P28473+P30191+P62813+P63079+P63138+Q91ZM7+Q9ES14); conditions: Compound concentration 10.0 uM
[35] = target: Histamine H3 receptor (Homo sapiens) (UniProt Q9Y5N1); conditions: Compound concentration 10.0 uM
[36] = target: Kappa-type opioid receptor (Homo sapiens) (UniProt P41145); conditions: Compound concentration 10.0 uM
[37] = target: B1 bradykinin receptor (Homo sapiens) (UniProt P46663); conditions: Compound concentration 10.0 uM
[38] = target: Glutamate receptor ionotropic, kainate (Rattus norvegicus) (UniProt P22756+Q01812+P42260+P42264+Q63273); conditions: Compound concentration 10.0 uM

Chain of Sigma intracellular receptor 2 (Q5BJF2 whole entry): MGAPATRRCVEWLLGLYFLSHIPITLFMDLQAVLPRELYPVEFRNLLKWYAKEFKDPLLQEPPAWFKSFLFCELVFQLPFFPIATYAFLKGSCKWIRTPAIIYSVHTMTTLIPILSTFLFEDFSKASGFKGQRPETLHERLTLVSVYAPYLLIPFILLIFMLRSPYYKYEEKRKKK
Chain of B1 bradykinin receptor (Homo sapiens) (P46663 whole entry): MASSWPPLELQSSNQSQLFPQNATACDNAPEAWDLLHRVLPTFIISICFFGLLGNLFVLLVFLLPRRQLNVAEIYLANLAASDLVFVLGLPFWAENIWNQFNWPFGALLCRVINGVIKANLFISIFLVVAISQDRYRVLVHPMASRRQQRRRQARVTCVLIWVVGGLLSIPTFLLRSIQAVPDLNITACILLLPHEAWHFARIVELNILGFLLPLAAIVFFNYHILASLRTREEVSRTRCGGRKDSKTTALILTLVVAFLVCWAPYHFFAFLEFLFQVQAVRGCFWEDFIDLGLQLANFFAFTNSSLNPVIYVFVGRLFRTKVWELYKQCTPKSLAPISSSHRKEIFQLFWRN
Chain of NT-3 growth factor receptor (Q16288 whole entry): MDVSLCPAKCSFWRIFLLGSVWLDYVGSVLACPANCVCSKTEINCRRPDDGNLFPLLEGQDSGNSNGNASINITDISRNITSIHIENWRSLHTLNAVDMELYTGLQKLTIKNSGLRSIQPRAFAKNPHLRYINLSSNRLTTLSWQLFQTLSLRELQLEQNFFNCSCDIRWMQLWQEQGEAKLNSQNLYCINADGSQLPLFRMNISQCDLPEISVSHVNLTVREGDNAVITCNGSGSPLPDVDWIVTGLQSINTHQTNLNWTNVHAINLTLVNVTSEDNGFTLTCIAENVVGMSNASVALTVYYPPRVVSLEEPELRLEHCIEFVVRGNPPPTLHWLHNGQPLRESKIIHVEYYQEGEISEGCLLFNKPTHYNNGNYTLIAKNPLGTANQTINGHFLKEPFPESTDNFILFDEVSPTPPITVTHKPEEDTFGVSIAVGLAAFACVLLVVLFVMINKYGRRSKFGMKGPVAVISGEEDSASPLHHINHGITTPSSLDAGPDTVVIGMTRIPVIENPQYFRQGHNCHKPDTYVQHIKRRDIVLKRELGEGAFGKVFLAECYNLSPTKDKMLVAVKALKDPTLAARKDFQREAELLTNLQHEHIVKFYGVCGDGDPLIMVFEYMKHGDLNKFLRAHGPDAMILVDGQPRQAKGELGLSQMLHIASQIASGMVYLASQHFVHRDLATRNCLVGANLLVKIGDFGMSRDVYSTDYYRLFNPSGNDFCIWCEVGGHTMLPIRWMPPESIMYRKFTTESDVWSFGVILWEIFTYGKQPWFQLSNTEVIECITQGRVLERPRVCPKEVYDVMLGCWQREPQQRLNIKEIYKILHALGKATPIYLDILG
Chain of SRSF protein kinase 2 (P78362 whole entry): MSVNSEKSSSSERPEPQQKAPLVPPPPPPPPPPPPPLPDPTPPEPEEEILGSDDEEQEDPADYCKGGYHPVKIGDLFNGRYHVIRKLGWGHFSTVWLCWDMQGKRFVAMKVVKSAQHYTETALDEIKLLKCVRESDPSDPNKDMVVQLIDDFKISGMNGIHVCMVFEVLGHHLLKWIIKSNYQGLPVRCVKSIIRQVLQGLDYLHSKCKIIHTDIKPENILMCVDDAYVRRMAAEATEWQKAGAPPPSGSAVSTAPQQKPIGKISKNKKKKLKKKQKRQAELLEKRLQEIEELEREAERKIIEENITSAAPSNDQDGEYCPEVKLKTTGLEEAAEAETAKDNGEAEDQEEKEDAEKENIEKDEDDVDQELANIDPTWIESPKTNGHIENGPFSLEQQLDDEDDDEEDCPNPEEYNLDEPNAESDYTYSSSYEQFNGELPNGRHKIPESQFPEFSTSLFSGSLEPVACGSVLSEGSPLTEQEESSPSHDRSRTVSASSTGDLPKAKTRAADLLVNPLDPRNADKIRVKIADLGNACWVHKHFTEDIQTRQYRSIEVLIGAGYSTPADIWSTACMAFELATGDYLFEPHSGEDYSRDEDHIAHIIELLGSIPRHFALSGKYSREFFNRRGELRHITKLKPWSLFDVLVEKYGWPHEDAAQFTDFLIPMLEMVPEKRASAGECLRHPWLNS
Chain of Cyclin-dependent kinase 6 (Q00534 whole entry): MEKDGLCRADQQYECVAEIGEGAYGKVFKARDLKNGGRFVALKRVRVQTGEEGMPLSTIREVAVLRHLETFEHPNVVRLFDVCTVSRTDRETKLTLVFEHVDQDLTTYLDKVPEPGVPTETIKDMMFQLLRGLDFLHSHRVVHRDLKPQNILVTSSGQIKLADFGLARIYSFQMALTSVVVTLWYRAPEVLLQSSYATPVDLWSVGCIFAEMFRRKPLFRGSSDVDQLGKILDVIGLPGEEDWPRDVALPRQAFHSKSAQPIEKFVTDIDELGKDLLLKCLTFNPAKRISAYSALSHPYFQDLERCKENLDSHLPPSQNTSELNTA
Chain of Non-receptor tyrosine-protein kinase TNK1 (Q13470 whole entry): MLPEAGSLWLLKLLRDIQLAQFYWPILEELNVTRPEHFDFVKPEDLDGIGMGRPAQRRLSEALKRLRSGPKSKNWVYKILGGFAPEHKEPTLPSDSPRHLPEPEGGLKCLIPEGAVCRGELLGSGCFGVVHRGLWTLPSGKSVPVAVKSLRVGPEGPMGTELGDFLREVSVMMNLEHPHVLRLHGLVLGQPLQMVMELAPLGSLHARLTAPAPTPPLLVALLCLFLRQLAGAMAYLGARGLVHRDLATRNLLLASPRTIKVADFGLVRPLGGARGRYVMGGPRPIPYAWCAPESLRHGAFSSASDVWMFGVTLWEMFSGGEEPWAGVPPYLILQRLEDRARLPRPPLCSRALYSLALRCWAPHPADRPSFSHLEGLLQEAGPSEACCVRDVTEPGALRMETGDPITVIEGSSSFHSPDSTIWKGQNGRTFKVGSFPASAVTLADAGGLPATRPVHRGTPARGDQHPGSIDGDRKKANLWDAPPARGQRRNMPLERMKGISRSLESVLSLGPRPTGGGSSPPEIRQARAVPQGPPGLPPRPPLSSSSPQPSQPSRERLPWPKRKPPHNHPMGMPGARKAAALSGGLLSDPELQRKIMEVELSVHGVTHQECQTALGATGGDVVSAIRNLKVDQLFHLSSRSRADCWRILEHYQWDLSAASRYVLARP
Chain of Sodium-dependent noradrenaline transporter (Homo sapiens) (P23975 whole entry): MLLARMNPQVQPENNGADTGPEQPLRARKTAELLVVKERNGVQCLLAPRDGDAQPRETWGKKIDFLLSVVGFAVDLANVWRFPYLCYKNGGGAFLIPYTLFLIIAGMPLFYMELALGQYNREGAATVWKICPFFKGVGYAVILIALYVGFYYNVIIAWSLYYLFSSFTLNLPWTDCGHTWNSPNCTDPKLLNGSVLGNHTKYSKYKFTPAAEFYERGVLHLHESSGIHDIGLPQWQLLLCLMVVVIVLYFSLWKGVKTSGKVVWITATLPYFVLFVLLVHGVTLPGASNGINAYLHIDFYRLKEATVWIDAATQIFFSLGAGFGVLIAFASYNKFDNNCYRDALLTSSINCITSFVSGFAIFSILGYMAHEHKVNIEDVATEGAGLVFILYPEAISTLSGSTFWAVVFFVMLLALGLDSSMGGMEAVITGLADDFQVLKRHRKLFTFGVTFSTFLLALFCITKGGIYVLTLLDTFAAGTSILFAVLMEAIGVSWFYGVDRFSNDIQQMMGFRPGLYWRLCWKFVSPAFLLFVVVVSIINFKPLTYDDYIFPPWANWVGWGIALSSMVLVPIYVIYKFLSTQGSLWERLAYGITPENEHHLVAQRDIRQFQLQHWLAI
Chain of Serine/threonine-protein kinase Nek8 (Q86SG6 whole entry): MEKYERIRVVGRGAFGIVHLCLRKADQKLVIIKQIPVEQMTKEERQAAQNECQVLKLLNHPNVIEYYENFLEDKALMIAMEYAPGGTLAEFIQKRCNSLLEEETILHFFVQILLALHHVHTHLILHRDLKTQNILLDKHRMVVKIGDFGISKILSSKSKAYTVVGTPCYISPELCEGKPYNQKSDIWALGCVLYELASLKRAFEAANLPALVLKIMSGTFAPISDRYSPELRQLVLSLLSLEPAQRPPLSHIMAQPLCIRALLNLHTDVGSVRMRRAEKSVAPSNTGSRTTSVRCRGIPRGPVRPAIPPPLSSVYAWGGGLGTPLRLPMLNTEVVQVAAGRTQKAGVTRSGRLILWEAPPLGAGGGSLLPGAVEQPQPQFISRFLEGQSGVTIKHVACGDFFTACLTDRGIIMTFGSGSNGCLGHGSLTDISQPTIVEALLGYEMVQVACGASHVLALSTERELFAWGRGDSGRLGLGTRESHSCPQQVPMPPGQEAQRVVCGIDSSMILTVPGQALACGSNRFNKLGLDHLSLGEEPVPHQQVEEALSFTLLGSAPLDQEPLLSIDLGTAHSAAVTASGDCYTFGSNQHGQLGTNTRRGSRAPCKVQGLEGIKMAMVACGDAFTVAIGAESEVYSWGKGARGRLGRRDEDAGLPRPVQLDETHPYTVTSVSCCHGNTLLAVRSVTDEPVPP
Chain of Histamine H3 receptor (Homo sapiens) (Q9Y5N1 whole entry): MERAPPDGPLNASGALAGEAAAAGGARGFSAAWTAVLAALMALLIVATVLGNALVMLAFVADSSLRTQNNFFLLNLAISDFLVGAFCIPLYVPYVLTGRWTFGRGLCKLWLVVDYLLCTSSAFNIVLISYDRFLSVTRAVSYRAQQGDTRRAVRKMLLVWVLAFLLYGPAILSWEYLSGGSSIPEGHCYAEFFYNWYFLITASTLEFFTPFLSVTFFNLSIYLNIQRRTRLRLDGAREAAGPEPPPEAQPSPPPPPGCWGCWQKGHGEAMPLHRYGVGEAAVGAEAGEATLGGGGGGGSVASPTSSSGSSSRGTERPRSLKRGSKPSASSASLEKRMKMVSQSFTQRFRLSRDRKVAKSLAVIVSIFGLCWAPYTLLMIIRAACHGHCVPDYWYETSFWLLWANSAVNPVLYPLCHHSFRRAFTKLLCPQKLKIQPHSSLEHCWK

SMILES: CN1C(=O)[C@@H](N2CCc3c(nn(Cc4ccccc4)c3Br)C2=O)COc2ccccc21 [TP-030-2]
- Ki ([1]; read-out: Ki): 3.48 µM
- Ki ([1]; read-out: pKi (converted)): 3.24 µM
- IC50 [2]: 1000 nM
- IC50 [3]: 1000 nM
- IC50 [4]: 1000 nM
- IC50 [5]: 1000 nM
- IC50 [6]: 1000 nM
- IC50 [7]: 1000 nM
- IC50 [8]: 1000 nM
- IC50 [9]: 1000 nM
- IC50 [10]: 1000 nM
- IC50 [11]: 1000 nM
- IC50 [12]: 1000 nM
- IC50 [13]: 1000 nM
- IC50 [14]: 1000 nM
- IC50 [15]: 1000 nM
- IC50 [16]: 1000 nM
- IC50 [17]: 1000 nM
- IC50 [18]: 1000 nM
- IC50 [19]: 1000 nM
- IC50 [20]: 1000 nM
- IC50 [21]: 1000 nM
- IC50 [22]: 1000 nM
- IC50 [23]: 1000 nM
- IC50 [24]: 1000 nM
- IC50 (SRSF protein kinase 2): 1000 nM
- IC50 [25]: 1000 nM
- IC50 [26]: 1000 nM
- IC50 (TGF-beta receptor type-1): 1000 nM
- IC50 (TGF-beta receptor type-2): 1000 nM
- IC50 [27]: 1000 nM
- inhibition [28]: 37.7%
- inhibition [29]: 3.31%
- inhibition [30]: 41.7%
- inhibition [31]: -7.47%
- inhibition [32]: -4.83%
- inhibition [33]: 33%
- inhibition [34]: 24%
- inhibition [35]: 5%
- inhibition [36]: 3%
- inhibition [37]: 1%
- inhibition [38]: 5%
